Patent publication US10723764B2, “Anti-microbial peptides and methods of use thereof” (priority 2011, dated 2020)
≈ marks a conversion by molar mass, not a printed value. Where a SMILES comes first, the peptide text is derived from it. Where no end group is shown, it is not given here. [ ]: non-standard residue; d: D form. Phe(4-CF3) = N[C@@H](Cc1ccc(C(F)(F)F)cc1)C(=O)O

Experiments:
Bacillus subtilis 168 = assay type: cell-based
Protocol: (§1) The bacterial strains used in the study are Bacillus subtilis 168, methicillin-resistant Staphylococcus aureus USA300 LAC (Gram-positive), Escherichia coli K12, and Pseudomonas aeruginosa PAO1 (Gram negative). The antibacterial activities of the peptides were determined using the standard broth microdilution method (Wang et al. (2005) J. Biol. Chem., 280:5803-5811). In brief, the bacterial culture (90 μL) was treated with a series of peptide solutions (10 μL), each with two-fold dilution. After overnight incubation at 37° C., the microplate was read on a ChroMate® 4300 Microplate Reader at 630 nm (GMI, Ramsey, Minn.).
(§2) For the initial screen, antimicrobial activities of these peptides against S. aureus and E. coli were evaluated using the standard broth microdilution protocol (Wang, G. (2008) J. Biol. Chem., 283:32637-43). […] Subsequently, the in vitro activity of these six peptides was evaluated against Bacillus subtilis and Pseudomonas aeruginosa (Table 6). […] While maculatin 1.3 is active against two Gram-positive but not two Gram-negative bacterial strains, DASamP1 is species-specific since it active only against S. aureus. The finding that ascaphin-8, […], and piscidin 1 are wide-spectrum AMPs agrees with the literature (Apponyi et al. (2004) Peptides 25:1035-1054; Conlon et al. (2004) Biochem. Biophys. Res. Commun., 320:170-175; Silphaduang et al. (2001) Nature 414:268-269; Souza et al. (2005) J. Immunol., 186:6585-6596). For lycotoxin I, it was previously found to active against Gram-negative E. coli and yeast (Yan et al. (1998) J. Biol. Chem., 273:2059-2066).

[1] = system: Pseudomonas aeruginosa PAO1; assay type: cell-based
Protocol: as §1, §2
(§3) The antibacterial activities of the peptides were determined using the standard broth microdilution method (Mishra et al. (2012) J. Am. Chem. Soc., 134:12426-12429; Wang et al. (2005) Biol. Chem., 280:5803-5811). Briefly, the bacterial culture was treated with a series of peptide solutions, each with two-fold dilution. After overnight incubation at 37° C., the microplate was read on a ChroMate® 4300 Microplate Reader at 630 nm (GMI, Ramsey, Minn.).

chymotrypsin = chymotrypsin (Bos taurus, UniProt P00766); test: Peptide stability to chymotrypsin by SDS-PAGE; assay type: in vitro ADME, bovine; settings: 12.5 μM chymotrypsin, peptide/protein 40:1, PBS pH 8, 37° C.
Protocol: A solution (100 μl) of the peptide and 12.5 μM chymotrypsin (peptide/protein molar ratio, 40:1) in 10 mM PBS buffer (pH 8) was incubated at 37° C. Aliquots (10 μl) of the reaction solutions were taken at 0, 2, 4, and 22 hours and immediately mixed with 20 μl of 2×SDS loading buffer to stop the reaction. For the gel analysis, 10 μl of each sample was loaded to the well of a 5% stacking/18% resolving tricine gel. The samples in the lanes are: 1, protein marker; 2, temporin-PTa L-form at 0 hour; 3, 2 hours; 4, 4 hours; 5, 22 hours; 6, temporin-PTa D-form at 0 hour; 7, 2 hours; 8, 4 hours; 9, 22 hours. In the gel, the bands for the peptide and chymotrypsin were indicated with large and small arrows, respectively. Note that the peptide bands were not detected in lanes 3-5 due to protease cleavage but remained essentially constant in lanes 7-9.
Peptide stability was evaluated using standard SDS-PAGE (described in FIG. 5).
Peptide stability was evaluated based on a published protocol (Mishra et al. (2012) J. Am. Chem. Soc., 134:12426-12429) with one modification. Aliquots (10 μL) of the reaction solutions (peptide/protease molar ratio, 40:1) in 10 mM PBS buffer (pH 8) at 37° C. were taken at 0, 6, and 24 hours and immediately mixed with 10 μL of 2×SDS loading buffer followed by boiling for 5 minutes to stop the reaction. Samples were analyzed using 5% stacking/18% resolving tricine gel.

[2] = human, hemolysis, at 160 μM, human red blood cells
Protocol: (§4) Peptide hemolysis was assayed using an established protocol (Malmsten et al. (2011) PLoS One 6:e16400). In brief, fresh blood, obtained from the UNMC Blood Bank, was washed three times with PBS buffer and made into a 5% solution. To 90 μL of this solution, 10 μL of a peptide solution was added and incubated at 37° C. for one hour. After centrifugation at 13,000 rpm, aliquots of the supernatant were transferred to a fresh 96 well microplate. The absorbance of the solutions was measured at 545 nm to detect the amount of hemoglobin released. The percent lysis was calculated by assuming 100% release when treated with 2% Triton X-100 and no lysis (0%) when treated with PBS buffer. HL50 was the peptide concentration that caused 50% lysis of human erythrocytes. The cell selectivity (CS) indexes were calculated as the ratio of HL50 to the MIC of the peptide against S. aureus USA300.
(§5) The hemolytic effects of the six peptides were also compared on human red blood cells (hRBC) using an established protocol (Malmsten et al. (2011) PLoS One 6:e16400). […] A high TI indicates good cell selectivity.
(§6) Peptide hemolysis was assayed using an established protocol (Menousek et al. (2012) Int. J. Antimicrob. Agents 39:402-406; Malmsten et al. (2011) PLoS One 6:e16400). Briefly, blood cells were washed three times with phosphate-buffered saline (PBS) and were diluted to a 5% solution. Following peptide treatment, incubation at 37° C. for 1 hour and centrifugation at 13,000 rpm, aliquots of the supernatant were transferred to a fresh 96-well microplate. To assess peptide cytotoxicity, the amount of hemoglobin released was measured at 545 nm. Percent lysis was calculated by assuming 100% release when human blood cells were treated with 2% Triton X-100 and 0% release when they were incubated with PBS buffer.

human erythrocytes = settings: for hemolysis: human, 160 µM
Protocol: as §4, §5, §6

E. faecium ATCC51559 = assay type: cell-based, Enterococcus faecium; settings: ATCC51559
Protocol: as §3

A. baumannii B2367-12 = assay type: cell-based, Acinetobacter baumanii
Protocol: as §3

E. cloacae B2366-12 = assay type: cell-based; settings: B2366-12
Protocol: as §3

ESKAPE pathogens = assay type: cell-based
Protocol: as §3
A rational design was conducted on the basis of the 3D structure of GF-17d3. […] The noncoherent packing of the GF-17d3 side chains caused a hydrophobic defect in the structure (FIGS. 8C and 8D, arrow), leading to reduced hydrophobicity. Accordingly, it was hypothesized that the antimicrobial activity of this peptide 17F2 (sequence GX1KRLVQRLKDX2LRNLV (SEQ ID NO: 58), Table 9) could be enhanced by filling in the hydrophobic cavity (FIG. 8D, arrow) with a larger hydrophobic side chain. The antimicrobial activities of these peptide analogues were evaluated using the standard microdilution assays (Mishra et al. (2012) J. Am. Chem. Soc., 134:12426-12429), and the minimal inhibitory concentrations (MIC) against a panel of the ESKAPE pathogens are provided in Table 10. […] To compare the two sites, these two substitutions at positions X1 and X2 were swapped to obtain 17Naph-mF. […] In addition, biphenylalanines were incorporated at position X1 alone or at both X1 and X2 of the 17F2 template. […] The killing abilities of these peptides are essentially proportional to their MIC values as well as retention times (a measure of hydrophobicity) on a reverse-phase HPLC column (Mishra et al. (2012) J. Am. Chem. Soc., 134:12426-12429).

[3] = system: methicillin-resistant Staphylococcus aureus USA300 LAC; settings: for S. aureus USA 300 MIC: Table 8
Protocol: This was done by modifying the standard microdilution antimicrobial assays (Wang, G. (2008) J. Biol. Chem., 283:32637-32643). Specifically, the bacterial wells with a high peptide concentration (e.g. 100 μM) are duplicated (e.g., two for antimicrobial assays and two for protease stability assays). As an illustration, chymotrypsin was applied to the duplicated wells at a peptide:protease molar ratio of 25:1.

Escherichia coli K12 = settings: Table 8
[4] = Peptide solubility (observation); assay type: physicochemical

Molecule: CC[C@@H](C)[C@@H](NC(=O)[C@@H](CCCCN)NC(=O)[C@H]1CCCN1C(=O)[C@H](NC(=O)[C@@H](CC(C)C)NC(=O)[C@@H](CCCCN)NC(=O)[C@@H](CC(C)C)NC(=O)[C@H](NC(=O)[C@@H](CO)NC(=O)CNC(=O)[C@@H](Cc1ccccc1)NC(=O)[C@H](N)Cc1ccccc1)C(C)C)[C@H](C)CC)C(=O)N[C@H](CC(C)C)C(N)=O [Temporin-PTa (D-form)]
- MIC (μM) BS (Bacillus subtilis 168): 6.25 µM (≈ 9.21 µg/mL)
- MIC (μM) PA [1]: >100 µM
- time the peptide stays intact in the presence of chymotrypsin (chymotrypsin): at least 22 hours

Molecule: CC(C)C[C@H](NC(=O)[C@H](CC(N)=O)NC(=O)[C@H](CCCNC(=N)N)NC(=O)[C@@H](CC(C)C)NC(=O)[C@H](Cc1ccccc1)NC(=O)[C@H](CC(=O)O)NC(=O)[C@H](CCCCN)NC(=O)[C@@H](CC(C)C)NC(=O)[C@H](CCCNC(=N)N)NC(=O)[C@H](CCC(N)=O)NC(=O)[C@@H](NC(=O)[C@@H](CC(C)C)NC(=O)[C@H](CCCNC(=N)N)NC(=O)[C@H](CCCCN)NC(=O)[C@H](Cc1ccc(C(F)(F)F)cc1)NC(=O)CN)C(C)C)C(=O)N[C@H](C(N)=O)C(C)C [B128A, GX1KRLVQRLKDX2LRNLV-amide] (H-G[Phe(4-CF3)]KR[dL]VQR[dL]KDF[dL]RNLV-NH2)
- MIC (μM) PA [1]: 25 µM (≈ 54.2 µg/mL)
- hemolysis at 160 µM [2]: 3 to 5%
- HL50 (μM), peptide concentration that causes 50% lysis of human erythrocytes (human erythrocytes; Table 10): >900 µM
- hemolysis (human erythrocytes): <5%
- MIC (μM) EF (E. faecium ATCC51559): 25 to 50 µM
- MIC (μM) AB (A. baumannii B2367-12): 3.1 to 6.2 µM
- MIC (μM) EC (E. cloacae B2366-12): 25 µM (≈ 54.2 µg/mL)
- MICs against most of the ESKAPE strains (ESKAPE pathogens; most of the ESKAPE strains): 25 to 50 µM
- MIC (μM) SA ([3]; S. aureus USA300 LAC, Table 10): 25 µM (≈ 54.2 µg/mL)
- S. aureus USA 300 MIC [3]: 40 µM
- E. coli K12 MIC (Escherichia coli K12): 5 µM

Molecule: FFGSLLKLLPKLL-NH2 [Temporin-PTa6L]
- MIC (μM) BS (Bacillus subtilis 168): 3.12 µM

Molecule: LLGSLLKLLPKLL-NH2 [Temporin-PTa8L]
- MIC (μM) BS (Bacillus subtilis 168): 3.12 µM
- MIC (μM) PA [1]: >100 µM

Molecule: GIIPIISIIGKII-NH2 (C-terminus assumed) [DFTamP1-pi]
- solubility [4]: poorly soluble

Molecule: CC(C)C[C@H](NC(=O)[C@H](CC(N)=O)NC(=O)[C@H](CCCNC(=N)N)NC(=O)[C@@H](CC(C)C)NC(=O)[C@H](Cc1ccccc1)NC(=O)[C@H](CC(=O)O)NC(=O)[C@H](CCCCN)NC(=O)[C@@H](CC(C)C)NC(=O)[C@H](CCCNC(=N)N)NC(=O)[C@H](CCC(N)=O)NC(=O)[C@@H](NC(=O)[C@@H](CC(C)C)NC(=O)[C@H](CCCNC(=N)N)NC(=O)[C@H](CCCCN)NC(=O)[C@H](Cc1ccccc1)NC(=O)CN)C(C)C)C(=O)N[C@H](C(N)=O)C(C)C [A128A, GX1KRLVQRLKDX2LRNLV-amide] (H-GFKR[dL]VQR[dL]KDF[dL]RNLV-NH2)
- hemolysis at 160 µM [2]: 3 to 5%
- hemolysis (human erythrocytes): <3%
- MIC (μM) AB (A. baumannii B2367-12): 6.2 to 12.5 µM
- MIC (μM) EC (E. cloacae B2366-12): 25 µM (≈ 52.5 µg/mL)
- MIC against E. coli, A. baumannii, and E. cloacae (ESKAPE pathogens; E. coli, A. baumannii, and E. cloacae): 6.2 to 25 µM
- S. aureus USA 300 MIC [3]: > 160 µM
- E. coli K12 MIC (Escherichia coli K12): 10 µM

Molecule: CC[C@H](C)[C@H](NC(=O)[C@H](CCCCN)NC(=O)[C@@H]1CCCN1C(=O)[C@@H](NC(=O)[C@H](CC(C)C)NC(=O)[C@H](CCCCN)NC(=O)[C@H](CC(C)C)NC(=O)[C@@H](NC(=O)[C@H](CO)NC(=O)CNC(=O)[C@H](Cc1ccccc1)NC(=O)[C@@H](N)Cc1ccccc1)C(C)C)[C@@H](C)CC)C(=O)N[C@@H](CC(C)C)C(N)=O [Temporin-PTa, reference compound]
- time the peptide stays intact in the presence of chymotrypsin (chymotrypsin): ≤ 2 h
